Assay results published in patent US20110123651A1, “DIETARY SUPPLEMENT DRINK FOR DELIVERY OF RESVERATROL AND OTHER POLYPHENOLS” (priority 2009, published 2011).

Experiment: Buccal delivery of resveratrol in humans: free resveratrol in plasma
Type: in vivo
Conditions: human, 1 mg resveratrol in 50 mL solution retained in the mouth for one minute before swallowing, plasma two minutes later, read-out: free resveratrol measured in plasma
Experimental: One efficient way of administering resveratrol in humans may be buccal delivery, that is without immediate swallowing, by direct absorption through the inside of the mouth. As an example, when one mg of resveratrol in 50 mL solution was retained in the mouth for one minute before swallowing, 37 ng/ml of free resveratrol was measured in plasma two minutes later. This level of unchanged resveratrol in blood can only be achieved with 250 mg of resveratrol taken in pill form.

Oc1ccc(C=Cc2cc(O)cc(O)c2)cc1 [resveratrol]
concentration at 2 min: 37 ng/mL
